# Measurements published in patent US10202350B2, “MCT4 inhibitors for treating disease” (Vettore, LLC, priority 2015, dated 2019).
# What was measured:
# MCT4 = MCT4 (Homo sapiens (Human), UniProt O15427); assay: MCT4-mediated lactate transport in MDA-MB-231 breast cancer cells; assay type: cell-based; settings: MDA-MB-231 cells, native MCT4; 50 mM L-lactate
# Procedure: (§1) 10 μL of a 30 mM DMSO stock of BCECF-AM ester (Life Technologies) is added and the cells are incubated at 37° C. for 5 min. The cells are pelleted (300 g, 5 min), washed once with 1 mL Tyrode's Solution, pH 7.4, re-pelleted (300 g, 5 min), and resuspended in 1 mL Tyrode's Solution, pH 7.4.
# (§2) 2.5 μL BCECF-loaded cells, along with either 10 μL DMSO or 100×compound in DMSO, are added to 937.5 μL of Tyrode's Solution in a quartz 1.0 mL cuvette (PerkinElmer, B0631116). […] After establishing baseline BCECF fluorescence (around 10-20 s), 50 μL of 1 M sodium L-lactate (Sigma-Aldrich) is added to the cuvette (final concentration: 50 mM) and rapidly mixed. The time-dependent decrease in BCECF fluorescence (490/440 ratio) may be fit to an exponential decay curve (Prism GraphPad) to determine the rate of lactate transport.
# Preparation of BCECF-loaded cells and lactate transport activity may be determined as described for Assay 1.
# MCT1 = MCT1 (Homo sapiens (Human), UniProt P53985); assay: MCT1-mediated lactate transport in BT20 breast cancer cells; assay type: cell-based; settings: native MCT1, 10 mM L-lactate, Table 3
# MCT1, sequence (P53985 whole entry): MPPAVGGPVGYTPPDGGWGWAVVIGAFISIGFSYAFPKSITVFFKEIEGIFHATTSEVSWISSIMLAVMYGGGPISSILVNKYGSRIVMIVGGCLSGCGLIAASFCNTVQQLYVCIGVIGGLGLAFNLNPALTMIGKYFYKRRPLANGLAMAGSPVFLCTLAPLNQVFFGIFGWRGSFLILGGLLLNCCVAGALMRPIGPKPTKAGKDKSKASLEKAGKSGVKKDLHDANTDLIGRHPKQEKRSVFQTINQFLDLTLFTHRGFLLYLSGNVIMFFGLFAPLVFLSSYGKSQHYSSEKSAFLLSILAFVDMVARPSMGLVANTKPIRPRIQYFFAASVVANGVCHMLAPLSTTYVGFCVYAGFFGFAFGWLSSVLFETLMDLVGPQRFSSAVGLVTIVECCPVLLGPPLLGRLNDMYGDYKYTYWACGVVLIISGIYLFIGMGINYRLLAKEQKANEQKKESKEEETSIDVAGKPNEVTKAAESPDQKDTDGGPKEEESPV
# MCT1, sequence (P35613 140-385 partner): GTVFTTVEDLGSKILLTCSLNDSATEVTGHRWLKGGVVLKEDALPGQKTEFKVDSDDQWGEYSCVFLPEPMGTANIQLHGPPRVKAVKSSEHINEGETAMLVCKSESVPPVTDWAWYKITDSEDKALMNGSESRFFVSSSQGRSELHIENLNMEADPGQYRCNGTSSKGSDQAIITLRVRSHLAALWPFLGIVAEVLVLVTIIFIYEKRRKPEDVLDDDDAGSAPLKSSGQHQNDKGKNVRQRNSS
# Procedure: as §1, §2
# Assay 4: MCT1-Mediated Lactate Transport in BT20 Breast Cancer Cells.
# Preparation of BCECF loaded cells are as described for Assay 1. Lactate transport assay is as described for Assay 1, except 10 mM L-lactate (rather than 50 mM) is added.
# MCT4, sequence (O15427 whole entry, looked up): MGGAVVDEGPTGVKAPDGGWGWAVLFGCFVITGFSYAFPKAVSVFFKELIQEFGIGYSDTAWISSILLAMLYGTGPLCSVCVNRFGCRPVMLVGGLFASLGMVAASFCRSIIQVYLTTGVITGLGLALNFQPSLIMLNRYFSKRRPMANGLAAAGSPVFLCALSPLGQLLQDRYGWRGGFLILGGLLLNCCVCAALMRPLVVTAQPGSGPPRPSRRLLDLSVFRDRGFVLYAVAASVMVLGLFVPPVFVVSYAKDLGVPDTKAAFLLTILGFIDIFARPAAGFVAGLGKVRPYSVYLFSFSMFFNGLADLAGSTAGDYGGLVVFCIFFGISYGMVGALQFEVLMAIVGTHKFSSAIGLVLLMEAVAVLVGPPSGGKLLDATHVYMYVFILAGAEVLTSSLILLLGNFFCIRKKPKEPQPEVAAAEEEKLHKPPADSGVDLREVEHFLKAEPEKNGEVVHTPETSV
# MCT4, sequence (P35613 whole entry partner, looked up): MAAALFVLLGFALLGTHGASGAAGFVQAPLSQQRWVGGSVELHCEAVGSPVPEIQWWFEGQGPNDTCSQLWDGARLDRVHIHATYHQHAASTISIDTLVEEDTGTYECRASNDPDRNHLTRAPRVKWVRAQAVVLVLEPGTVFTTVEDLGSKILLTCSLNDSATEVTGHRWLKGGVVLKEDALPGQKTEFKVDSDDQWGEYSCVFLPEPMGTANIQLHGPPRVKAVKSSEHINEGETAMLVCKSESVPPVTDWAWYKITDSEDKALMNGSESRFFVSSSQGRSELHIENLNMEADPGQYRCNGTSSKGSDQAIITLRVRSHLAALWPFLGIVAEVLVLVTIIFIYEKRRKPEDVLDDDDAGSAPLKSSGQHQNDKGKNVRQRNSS
SMILES,IC50 (MCT4),IC50 (MCT1)
"COc1ccccc1Cn1nc(COC(C)(C)C(=O)O)cc1-c1cccc(OCC(C)C)c1 [Example 61, 2-([1-[(2-methoxyphenyl)methyl]-5-[3-(2-methylpropoxy)phenyl]-1H-pyrazol-3-yl]methoxy)-2-methylpropanoic acid]",3.1 nM,11000 nM
"COc1cccc(Cn2nc(COC(C)(C)C(=O)O)cc2-c2cccc(OCC(C)C)c2)c1 [Example 62, 2-([1-[(3-methoxyphenyl)methyl]-5-[3-(2-methylpropoxy)phenyl]-1H-pyrazol-3-yl]methoxy)-2-methylpropanoic acid]",33 nM,27000 nM
"COc1ccc(Cn2nc(COC(C)(C)C(=O)O)cc2-c2cccc(OCC(C)C)c2)cc1 [Example 63, 2-([1-[(4-methoxyphenyl)methyl]-5-[3-(2-methylpropoxy)phenyl]-1H-pyrazol-3-yl]methoxy)-2-methylpropanoic acid]",37 nM,17000 nM
CCC(CC)(OCc1cc(-c2cccc(OC)c2)n(Cc2ccccc2Cl)n1)C(=O)O [Example 67],11 nM,17000 nM
"CC(C)C(=O)Nc1cccc(-c2cc(COC(C)(C)C(=O)O)nn2Cc2ccccc2Cl)c1 [Example 69, 2-([1-[(2-Chlorophenyl)methyl]-5-[3-(2-methylpropanamido)phenyl]-1H-pyrazol-3-yl]methoxy)-2-methylpropanoic Acid]",5800 nM,> 100000 nM
"CC(C)(OCc1cc(-c2cccc(S(C)(=O)=O)c2)n(Cc2ccccc2Cl)n1)C(=O)O [Example 70, 2-([1-[(2-chlorophenyl)methyl]-5-(3-methanesulfonylphenyl)-1H-pyrazol-3-yl]methoxy)-2-methylpropanoic Acid]",9300 nM,> 100000 nM
"CC(C)(OCc1cc(-c2cccc(NS(C)(=O)=O)c2)n(Cc2ccccc2Cl)n1)C(=O)O [Example 71, 2-([1-[(2-chlorophenyl)methyl]-5-(3-methanesulfonamidophenyl)-1H-pyrazol-3-yl]methoxy)-2-methylpropanoic Acid]",34000 nM,64000 nM
"CNc1cccc(-c2cc(COC(C)(C)C(=O)O)nn2Cc2ccccc2Cl)c1 [Example 72, 2-([1-[(2-Chlorophenyl)methyl]-5-[3-(methylamino)phenyl]-1H-pyrazol-3-yl]methoxy)-2-methylpropanoic Acid]",220 nM,45000 nM
"CC(C)CNc1cccc(-c2cc(COC(C)(C)C(=O)O)nn2Cc2ccccc2Cl)c1 [Example 73, 2-([1-[(2-chlorophenyl)methyl]-5-[3-[(2-methylpropyl)amino]phenyl]-1H-pyrazol-3-yl]methoxy)-2-methylpropanoic Acid]",21 nM,> 11000 nM
"CC(C)NC(=O)c1cccc(-c2cc(COC(C)(C)C(=O)O)nn2Cc2ccccc2Cl)c1 [Example 74, 2-([1-[(o-Chlorophenyl)methyl]-5-[m-(isopropylamino)carbonylphenyl]-1H-pyrazol-3-yl]methoxy)-2-methylpropionic Acid]",6400 nM,> 100000 nM
"CC(C)(OCc1cc(Nc2ccccc2)n(Cc2ccccc2Cl)n1)C(=O)O [Example 75, 2-([1-[(2-chlorophenyl)methyl]-5-(phenylamino)-1H-pyrazol-3-yl]methoxy)-2-methylpropanoic Acid]",1700 nM,> 100000 nM
"CC(C)(OCc1cc(Oc2ccccc2)n(Cc2ccccc2Cl)n1)C(=O)O [Example 76, 2-([1-[(2-Chlorophenyl)methyl]-5-phenoxy-1H-pyrazol-3-yl]methoxy)-2-methylpropanoic Acid]",400 nM,38000 nM
"CC(C)(OCc1cc(-c2cccc(O)c2)n(Cc2ccccc2Cl)n1)C(=O)O [Example 79, 2-[[1-[(2-Chlorophenyl)methyl]-5-(3-hydroxyphenyl)pyrazol-3-yl]methoxy]-2-methyl-propanoic Acid]",59 nM,15000 nM
